Test results: US20240294572A1, “Antimicrobial Peptides” (priority 2021, published 2024)
Residues, ends and D or L forms follow the SMILES beside them. *: point of attachment. Decanoyl = CCCCCCCCCC(=O)*

How the values were obtained:
Assay in all cases: Mass spectrometry of mouse plasma proteins bound to bead-immobilized peptide
Type in all cases: binding
Settings in all cases: intensity bound to L-form / D-form of C10-KR8
[1] = molecular target: T1, Apolipoprotein A-II (P09813) (Mus musculus, UniProt P09813)
T1 construct: incubated with 5% mouse plasma; from tissue; host or cells: mouse plasma (5%)
T1 sequence (P09813 19-102): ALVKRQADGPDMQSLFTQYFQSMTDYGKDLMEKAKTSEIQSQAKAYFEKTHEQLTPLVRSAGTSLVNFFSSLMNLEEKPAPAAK
Protocol: (§1) Dynabeads M-370 amine (2×10^9 beads/mL, 50 μL; Thermo Fisher Scientific) were washed 3 times in sterile PBS (1 mL; GIBCO) and reacted with a bifunctional SM(PEG)4 cross-linker (5 mg/mL in DMSO) containing N-hydroxysuccinimide (NHS) ester and maleimide functional groups. A stable covalent bond between the amino group of beads and the NHS ester of the cross-linker was formed in PBS at pH 7.2 at room temperature for 24 hours with shaking at 80 rpm. The beads were then washed six times with PBS to remove nonreacted cross-linker. Next, peptide C10-KR8 (with a cysteine at the N-terminus) at 5 mg/mL was reacted with the free maleimide group in PBS for 24 hours at room temperature with shaking at 80 rpm. Another round of washing was conducted to remove the nonreacted peptides. Both the L-and D-forms of the peptide were coupled in the same manner. A portion of the beads without peptide coupling was saved as a control.
(§2) For serum binding experiments, the beads were resuspended in 500 μL of PBS; 200-μL aliquots of the coated and control dynabead were incubated with 5% mouse plasma for 18 hours at 37° C. After binding, the beads were washed six times with PBS to remove unbound proteins. Finally, the beads were suspended in 50 μL of PBS for mass spectrophotometric analysis to identify peptide-binding partners.
(§3) The samples were reduced by 10 mM dithiothreitol (DTT) and incubated for 30 minutes at 56° C. and back to room temperature. A final concentration of 50 mM iodoacetamide was added to alkylate free cysteines followed by further incubation for 20 min in the dark. Bound proteins were enzymatically digested by trypsin (4 μL of 0.5 μg/mL) overnight. A 60 […] portion was transferred to a new Eppendorf® tube and dried for 2 hours. The samples were then dissolved in 20 μL of 2% acetonitrile with 0.1% formic acid before being loaded to Q-tip columns (Pepclean, C18 spin column). Column was activated by pipetting in and out (4× times), 10 μL of 70% acetonitrile with 0.1% formic acid, and equilibrating with the same volume of 2% acetonitrile with 0.1% formic acid. Binding of the samples was done by mixing more than 10 × times, followed by washing in the same buffer (2% acetonitrile with 0.1% formic acid). The bound peptides were then eluted with 20 μL of 70% acetonitrile with 0.1% formic acid. Samples were subjected to LC-MS analysis after being suspended in the desired buffer.
(§4) Extracted peptides were resuspended in 2% acetonitrile (ACN) and 0.1% formic acid (FA) and loaded onto trap column Acclaim™ PepMap™ 100 75 μm×2 cm C18 LC Columns (Thermo Scientific) at a flow rate of 4 μL/minute. These were then separated with a Thermo RSLC UltiMate™ 3000 on a Thermo Easy-Spray PepMap™ M RSLC C18 75 μm×50 cm C-18 2 μm column (Thermo Scientific) with a step gradient of 4-25% solvent B (0.1% FA in 80% ACN) from 10 to 37 minutes and 25-45% solvent B for 37-46 minutes at 300 nL/min and 50° C. with a 70 minute total run time. Eluted peptides were analyzed by a Thermo Orbitrap Fusion™ Lumos™ Tribrid™ (Thermo Scientific) mass spectrometer in a data dependent acquisition mode. A survey full scan MS (from m/z 350-1800) was acquired in the orbitrap with a resolution of 120000. The AGC target for MS1 was set as 4×10^5 and the ion filling time set as 100 ms. The most intense ions with charge state 2-6 were isolated in 3 second cycle and fragmented using HCD fragmentation with 40% normalized collision energy and detected at a mass resolution of 30000 at 200 m/z. The AGC target for MS/MS was set as 5×10^4 and ion filling time set 60 ms dynamic exclusion was set for 30 seconds with a 10 ppm mass window. Protein identification was performed by searching MS/MS data against the Swiss-Prot mouse protein database. The search was set up for full tryptic peptides with a maximum of two missed cleavage sites. Acetylation of protein N-terminus and oxidized methionine were included as variable modifications, and carbamidomethylation of cysteine was set as fixed modification. […]

[2] = molecular target: T2, Apolipoprotein A-IV (P06728) (Mus musculus, UniProt P06728)
T2 construct: incubated with 5% mouse plasma; from tissue; host or cells: mouse plasma (5%)
T2 sequence (P06728 21-395): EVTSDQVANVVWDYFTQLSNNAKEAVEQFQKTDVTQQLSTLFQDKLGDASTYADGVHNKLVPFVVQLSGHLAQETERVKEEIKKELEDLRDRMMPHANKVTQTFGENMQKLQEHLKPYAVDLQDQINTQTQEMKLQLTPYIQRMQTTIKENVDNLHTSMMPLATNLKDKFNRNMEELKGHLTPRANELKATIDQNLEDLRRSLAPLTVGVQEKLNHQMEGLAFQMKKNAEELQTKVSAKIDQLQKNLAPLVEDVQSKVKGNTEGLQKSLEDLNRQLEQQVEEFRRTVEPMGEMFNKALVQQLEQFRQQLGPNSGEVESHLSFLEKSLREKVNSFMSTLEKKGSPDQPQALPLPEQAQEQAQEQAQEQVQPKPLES
Protocol: as §1, §2, §3, §4

[3] = molecular target: T3, Apolipoprotein C-I (P34928) (Mus musculus, UniProt P34928)
T3 construct: incubated with 5% mouse plasma; from tissue; host or cells: mouse plasma (5%)
T3 sequence (P34928 27-88): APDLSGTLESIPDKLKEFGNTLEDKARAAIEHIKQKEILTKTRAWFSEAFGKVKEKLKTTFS
Protocol: as §1, §2, §3, §4

[4] = molecular target: T4, Apolipoprotein C-III (P33622) (Mus musculus, UniProt P33622)
T4 construct: incubated with 5% mouse plasma; from tissue; host or cells: mouse plasma (5%)
T4 sequence (P33622 21-99): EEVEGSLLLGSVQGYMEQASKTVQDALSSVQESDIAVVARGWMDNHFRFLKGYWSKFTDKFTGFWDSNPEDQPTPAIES
Protocol: as §1, §2, §3, §4

[5] = molecular target: T5, Apolipoprotein E (P08226) (Mus musculus, UniProt P08226)
T5 construct: incubated with 5% mouse plasma; from tissue; host or cells: mouse plasma (5%)
T5 sequence (P08226 19-311): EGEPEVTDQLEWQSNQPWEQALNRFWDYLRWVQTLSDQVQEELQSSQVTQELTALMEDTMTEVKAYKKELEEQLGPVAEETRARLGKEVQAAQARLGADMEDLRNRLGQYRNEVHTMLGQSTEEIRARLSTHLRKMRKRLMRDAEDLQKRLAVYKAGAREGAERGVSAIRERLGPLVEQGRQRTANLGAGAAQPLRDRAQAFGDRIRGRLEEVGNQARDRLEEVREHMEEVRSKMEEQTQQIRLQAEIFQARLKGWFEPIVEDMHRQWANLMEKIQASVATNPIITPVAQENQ
Protocol: as §1, §2, §3, §4

Serum albumin (P07724) = molecular target: T6, Serum albumin (P07724) (Mus musculus, UniProt P07724)
T6 construct: incubated with 5% mouse plasma; from tissue; host or cells: mouse plasma (5%)
T6 sequence (P07724 25-608): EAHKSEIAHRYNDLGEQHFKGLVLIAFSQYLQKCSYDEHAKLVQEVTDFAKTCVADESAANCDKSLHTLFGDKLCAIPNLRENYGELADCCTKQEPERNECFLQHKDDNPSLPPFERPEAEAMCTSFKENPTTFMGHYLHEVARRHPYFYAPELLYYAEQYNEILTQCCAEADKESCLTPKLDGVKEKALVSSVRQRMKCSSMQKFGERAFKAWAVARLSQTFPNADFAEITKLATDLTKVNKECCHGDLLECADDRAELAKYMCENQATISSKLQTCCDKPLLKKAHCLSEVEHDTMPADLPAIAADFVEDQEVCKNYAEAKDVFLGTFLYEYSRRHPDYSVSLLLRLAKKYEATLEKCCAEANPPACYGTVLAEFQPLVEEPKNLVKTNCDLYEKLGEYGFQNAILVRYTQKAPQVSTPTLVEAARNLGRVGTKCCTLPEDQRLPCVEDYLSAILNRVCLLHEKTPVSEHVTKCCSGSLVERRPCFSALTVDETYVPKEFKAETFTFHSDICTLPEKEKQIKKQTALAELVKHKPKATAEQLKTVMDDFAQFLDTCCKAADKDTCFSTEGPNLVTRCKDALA
Protocol: as §1, §2, §3, §4

Question: CCCCCCCCCC(=O)N[C@@H](CCCCN)C(=O)N[C@@H](CCCNC(=N)N)C(=O)N[C@H](C(=O)N[C@@H](Cc1c[nH]c2ccccc12)C(=O)N[C@@H](CCC(N)=O)C(=O)N[C@@H](CCCNC(=N)N)C(=O)N[C@H](C(=O)N[C@@H](CCCCN)C(N)=O)[C@@H](C)CC)[C@@H](C)CC [Peptide C10-KR8] (Decanoyl-KRIWQRIK-NH2) was tested. Which “L/D Ratio, Apolipoprotein A-II” value [1] did it give?
Answer: Its value is 0.00147.

Question: And the “L/D Ratio, Apolipoprotein A-IV” value [2]?
Answer: The value was 2.89.

Question: And the “L/D Ratio, Apolipoprotein C-I” value [3]?
Answer: The value was 2.08.

Question: And the “L/D Ratio, Apolipoprotein C-III” value [4]?
Answer: Its value is 3.62.

Question: What about the “L/D Ratio, Apolipoprotein E” value [5] of the same molecule?
Answer: The value was 0.811.

Question: What about the “L/D Ratio, Serum albumin” value (Serum albumin (P07724)) of the same molecule?
Answer: The value was 2.28.
